# Laboratory results as given in PubChem BioAssay AID2060895 (Molecular Pharmacology Branch, DTP, NCI, 2025).
# System: PDC 899932-113-R3-J6 complex spheroid viability
# Assay: Anticancer human tumor 899932-113-R3-J6-PDC patient-derived melanoma cell line growth inhibition [RAS]
# Details: for IC50: curve of first compound; for viability, T/C: stronger effect = lower value
# In short: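 Multi-cell-type spheroids: tumor cells plus HUVEC endothelial cells and mesenchymal stem cells. RAS-pathway inhibitors were combined with targeted agents, each dosed in half-log steps down from clinical Cmax, or from 10 microM when Cmax was unknown.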
# [1] = second compound 0.00316 µM, first compound 0.00316 µM
# [2] = second compound 0.00316 µM, first compound 0.01 µM
# [3] = second compound 0.00316 µM, first compound 0.0316 µM
# [4] = second compound 0.00316 µM, first compound 0.1 µM
# [5] = second compound 0.00316 µM, first compound 0.316 µM
# [6] = second compound 0.00316 µM, first compound 1 µM
# [7] = second compound 0.01 µM, first compound 0.00316 µM
# [8] = second compound 0.01 µM, first compound 0.01 µM
# [9] = second compound 0.01 µM, first compound 0.0316 µM
# [10] = second compound 0.01 µM, first compound 0.1 µM
# [11] = second compound 0.01 µM, first compound 0.316 µM
# [12] = second compound 0.01 µM, first compound 1 µM
# [13] = second compound 0.0316 µM, first compound 0.00316 µM
# [14] = second compound 0.0316 µM, first compound 0.01 µM
# [15] = second compound 0.0316 µM, first compound 0.0316 µM
# [16] = second compound 0.0316 µM, first compound 0.1 µM
# [17] = second compound 0.0316 µM, first compound 0.316 µM
# [18] = second compound 0.0316 µM, first compound 1 µM
# [19] = second compound 0.1 µM, first compound 0.00316 µM
# [20] = second compound 0.1 µM, first compound 0.01 µM
# [21] = second compound 0.1 µM, first compound 0.0316 µM
# [22] = second compound 0.1 µM, first compound 0.1 µM
# [23] = second compound 0.1 µM, first compound 0.316 µM
# [24] = second compound 0.1 µM, first compound 1 µM
# [25] = second compound 0.316 µM, first compound 0.00316 µM
# [26] = second compound 0.316 µM, first compound 0.01 µM
# [27] = second compound 0.316 µM, first compound 0.0316 µM
# [28] = second compound 0.316 µM, first compound 0.1 µM
# [29] = second compound 0.316 µM, first compound 0.316 µM
# [30] = second compound 0.316 µM, first compound 1 µM
# [31] = second compound 1 µM, first compound 0.00316 µM
# [32] = second compound 1 µM, first compound 0.01 µM
# [33] = second compound 1 µM, first compound 0.0316 µM
# [34] = second compound 1 µM, first compound 0.1 µM
# [35] = second compound 1 µM, first compound 0.316 µM
# [36] = second compound 1 µM, first compound 1 µM
# 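Throughout, for viability, T/C: spheroids exposed to agents for seven days before readout; 100% = DMSO vehicle control wells.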
smiles,measurement,setting,value
CC1(C)CCC(Nc2ncc(C(F)(F)F)c(-c3c[nH]c4c(P(C)(C)=O)c(C#N)ccc34)n2)CN1 (stereo not drawn) + C#Cc1c(F)ccc2cc(O)cc(-c3ncc4c(N5CC6CCC(C5)N6)nc(OCC56CCCN5CC(F)C6)nc4c3F)c12,IC50,second compound 0.0316 µM,16.4 nM
same,IC50,second compound 0.1 µM,15.3 nM
same,IC50,second compound 0.316 µM,16.5 nM
same,IC50,second compound 1 µM,15.8 nM
same,IC50,second compound 3.16 µM,19.2 nM
same,IC50,second compound 10 µM,20.7 nM
same,"viability, T/C","second compound 0.0316 µM, first compound 0.000949 µM",100%
same,"viability, T/C","second compound 0.0316 µM, first compound 0.003 µM",82.4%
same,"viability, T/C","second compound 0.0316 µM, first compound 0.00949 µM",57.3%
same,"viability, T/C","second compound 0.0316 µM, first compound 0.03 µM",45.7%
same,"viability, T/C","second compound 0.0316 µM, first compound 0.0949 µM",13.2%
same,"viability, T/C","second compound 0.0316 µM, first compound 0.3 µM",9.56%
same,"viability, T/C","second compound 0.1 µM, first compound 0.000949 µM",97.2%
same,"viability, T/C","second compound 0.1 µM, first compound 0.003 µM",79.1%
same,"viability, T/C","second compound 0.1 µM, first compound 0.00949 µM",56.9%
same,"viability, T/C","second compound 0.1 µM, first compound 0.03 µM",42.8%
same,"viability, T/C","second compound 0.1 µM, first compound 0.0949 µM",14.3%
same,"viability, T/C","second compound 0.1 µM, first compound 0.3 µM",7.89%
same,"viability, T/C","second compound 0.316 µM, first compound 0.000949 µM",102%
same,"viability, T/C","second compound 0.316 µM, first compound 0.003 µM",84.9%
same,"viability, T/C","second compound 0.316 µM, first compound 0.00949 µM",53.5%
same,"viability, T/C","second compound 0.316 µM, first compound 0.03 µM",47.5%
same,"viability, T/C","second compound 0.316 µM, first compound 0.0949 µM",15.9%
same,"viability, T/C","second compound 0.316 µM, first compound 0.3 µM",11.3%
same,"viability, T/C","second compound 1 µM, first compound 0.000949 µM",104%
same,"viability, T/C","second compound 1 µM, first compound 0.003 µM",79.4%
same,"viability, T/C","second compound 1 µM, first compound 0.00949 µM",58%
same,"viability, T/C","second compound 1 µM, first compound 0.03 µM",45.5%
same,"viability, T/C","second compound 1 µM, first compound 0.0949 µM",13.5%
same,"viability, T/C","second compound 1 µM, first compound 0.3 µM",9.51%
same,"viability, T/C","second compound 3.16 µM, first compound 0.000949 µM",112%
same,"viability, T/C","second compound 3.16 µM, first compound 0.003 µM",84.9%
same,"viability, T/C","second compound 3.16 µM, first compound 0.00949 µM",64.6%
same,"viability, T/C","second compound 3.16 µM, first compound 0.03 µM",47.1%
same,"viability, T/C","second compound 3.16 µM, first compound 0.0949 µM",13.6%
same,"viability, T/C","second compound 3.16 µM, first compound 0.3 µM",8.79%
same,"viability, T/C","second compound 10 µM, first compound 0.000949 µM",108%
same,"viability, T/C","second compound 10 µM, first compound 0.003 µM",87.6%
same,"viability, T/C","second compound 10 µM, first compound 0.00949 µM",55.1%
same,"viability, T/C","second compound 10 µM, first compound 0.03 µM",58.9%
same,"viability, T/C","second compound 10 µM, first compound 0.0949 µM",11.1%
same,"viability, T/C","second compound 10 µM, first compound 0.3 µM",6.89%
C=CC(=O)Nc1cc(Nc2nccc(-c3cn(C)c4ccccc34)n2)c(OC)cc1N(C)CCN(C)C + C=CC(=O)N1CCN(c2nc(OCC3CCCN3C)nc3c(F)c(-c4nc(N)cc(C)c4C(F)(F)F)c(Cl)cc23)C(C)C1,IC50,second compound 0.00316 µM,> 1000 nM
same,IC50,second compound 0.01 µM,> 1000 nM
same,IC50,second compound 0.0316 µM,> 1000 nM
same,IC50,second compound 0.1 µM,> 1000 nM
same,IC50,second compound 0.316 µM,> 1000 nM
same,IC50,second compound 1 µM,> 1000 nM
same,"viability, T/C",[1],103%
same,"viability, T/C",[2],93.5%
same,"viability, T/C",[3],101%
same,"viability, T/C",[4],99.1%
same,"viability, T/C",[5],101%
same,"viability, T/C",[6],82.8%
same,"viability, T/C",[7],98.9%
same,"viability, T/C",[8],99.4%
same,"viability, T/C",[9],98.7%
same,"viability, T/C",[10],101%
same,"viability, T/C",[11],101%
same,"viability, T/C",[12],92.2%
same,"viability, T/C",[13],106%
same,"viability, T/C",[14],101%
same,"viability, T/C",[15],92.9%
same,"viability, T/C",[16],107%
same,"viability, T/C",[17],107%
same,"viability, T/C",[18],82%
same,"viability, T/C",[19],110%
same,"viability, T/C",[20],95%
same,"viability, T/C",[21],112%
same,"viability, T/C",[22],97.7%
same,"viability, T/C",[23],96.4%
same,"viability, T/C",[24],99.6%
same,"viability, T/C",[25],112%
same,"viability, T/C",[26],103%
same,"viability, T/C",[27],101%
same,"viability, T/C",[28],107%
same,"viability, T/C",[29],102%
same,"viability, T/C",[30],89.1%
same,"viability, T/C",[31],98.4%
same,"viability, T/C",[32],97.2%
same,"viability, T/C",[33],91.8%
same,"viability, T/C",[34],94.5%
same,"viability, T/C",[35],105%
same,"viability, T/C",[36],78.8%
CC(Nc1ccc2c(c1)OCCn1cc(N3C(=O)OCC3C(F)F)nc1-2)C(N)=O (stereo not drawn) + C=CC(=O)N1CCN(c2nc(OCC3CCCN3C)nc3c(F)c(-c4nc(N)cc(C)c4C(F)(F)F)c(Cl)cc23)C(C)C1,IC50,second compound 0.00316 µM,1670 nM
same,IC50,second compound 0.01 µM,2010 nM
same,IC50,second compound 0.0316 µM,2910 nM
same,IC50,second compound 0.1 µM,2330 nM
same,IC50,second compound 0.316 µM,1640 nM
same,IC50,second compound 1 µM,1510 nM
same,"viability, T/C",[3],97%
same,"viability, T/C",[4],72.4%
same,"viability, T/C",[5],69.6%
same,"viability, T/C",[6],55.6%
same,"viability, T/C","second compound 0.00316 µM, first compound 3.16 µM",43%
same,"viability, T/C","second compound 0.00316 µM, first compound 10 µM",36.7%
same,"viability, T/C",[9],81.4%
same,"viability, T/C",[10],75.8%
same,"viability, T/C",[11],65.6%
same,"viability, T/C",[12],55.8%
same,"viability, T/C","second compound 0.01 µM, first compound 3.16 µM",47.5%
same,"viability, T/C","second compound 0.01 µM, first compound 10 µM",32.8%
same,"viability, T/C",[15],90.3%
same,"viability, T/C",[16],75.8%
same,"viability, T/C",[17],70.1%
same,"viability, T/C",[18],59.9%
same,"viability, T/C","second compound 0.0316 µM, first compound 3.16 µM",49.7%
same,"viability, T/C","second compound 0.0316 µM, first compound 10 µM",38.9%
same,"viability, T/C",[21],88.2%
same,"viability, T/C",[22],77.2%
same,"viability, T/C",[23],69.1%
same,"viability, T/C",[24],55.6%
same,"viability, T/C","second compound 0.1 µM, first compound 3.16 µM",48.3%
same,"viability, T/C","second compound 0.1 µM, first compound 10 µM",38.6%
same,"viability, T/C",[27],82.3%
same,"viability, T/C",[28],75.9%
same,"viability, T/C",[29],68.5%
same,"viability, T/C",[30],51.9%
same,"viability, T/C","second compound 0.316 µM, first compound 3.16 µM",46.5%
same,"viability, T/C","second compound 0.316 µM, first compound 10 µM",38.6%
same,"viability, T/C",[33],95.5%
same,"viability, T/C",[34],81.2%
same,"viability, T/C",[35],61.4%
same,"viability, T/C",[36],53.2%
same,"viability, T/C","second compound 1 µM, first compound 3.16 µM",48.7%
same,"viability, T/C","second compound 1 µM, first compound 10 µM",32%
O=C(c1ccc(F)c(F)c1Nc1ccc(I)cc1F)N1CC(O)([C@@H]2CCCCN2)C1 + C=CC(=O)N1CCN(c2nc(OCC3CCCN3C)nc3c(F)c(-c4nc(N)cc(C)c4C(F)(F)F)c(Cl)cc23)C(C)C1,IC50,second compound 0.00316 µM,5.71 nM
same,IC50,second compound 0.01 µM,6.26 nM
same,IC50,second compound 0.0316 µM,6.75 nM
same,IC50,second compound 0.1 µM,8.47 nM
same,IC50,second compound 0.316 µM,7.95 nM
same,IC50,second compound 1 µM,8.43 nM
same,"viability, T/C",[1],71.1%
same,"viability, T/C",[2],30%
same,"viability, T/C",[3],6.25%
same,"viability, T/C",[4],3.24%
same,"viability, T/C",[5],1.5%
same,"viability, T/C",[6],0.84%
same,"viability, T/C",[7],74.8%
same,"viability, T/C",[8],33%
same,"viability, T/C",[9],5.84%
same,"viability, T/C",[10],2.5%
same,"viability, T/C",[11],1.9%
same,"viability, T/C",[12],0.68%
same,"viability, T/C",[13],81.8%
same,"viability, T/C",[14],33.5%
same,"viability, T/C",[15],7.48%
same,"viability, T/C",[16],2.48%
same,"viability, T/C",[17],1.88%
same,"viability, T/C",[18],0.72%
same,"viability, T/C",[19],73.9%
same,"viability, T/C",[20],46%
same,"viability, T/C",[21],7.56%
same,"viability, T/C",[22],2.66%
same,"viability, T/C",[23],1.89%
same,"viability, T/C",[24],1.02%
same,"viability, T/C",[25],74.5%
same,"viability, T/C",[26],43.9%
same,"viability, T/C",[27],9.69%
same,"viability, T/C",[28],2.51%
same,"viability, T/C",[29],1.92%
same,"viability, T/C",[30],0.96%
same,"viability, T/C",[31],72.8%
same,"viability, T/C",[32],46%
same,"viability, T/C",[33],7.46%
same,"viability, T/C",[34],3.39%
same,"viability, T/C",[35],1.9%
same,"viability, T/C",[36],1.15%
